“And” between values parts separate entries of the source, which are not always exact repeats. Identical values can stand only once. Like-named read-outs stand apart in the source and are kept apart here. *1 amine or outer side, *2 acyl side, *3 side chain or, on linkers, in order; H or OH if unused. Where a SMILES comes first, the peptide text is derived from it. Side-chain parts run from the residue outwards. [ ]: non-standard residue; d: D form. The star is where a group is joined. C20 diacid = O=C(O)CCCCCCCCCCCCCCCCCCC(=O)*; γGlu = O=C(O)[C@H](CCC(=O)[*:2])N[*:1]; NMeI = CC[C@H](C)[C@H](NC)C(=O)O; αMeL = CC(C)C[C@](C)(N)C(=O)O; AEEA = NCCOCCOCC(=O)O
Legend:
[1] = test system: MHC-II presented peptides on human dendritic cells; assay: MAPPS assay (MHC-Associated Peptide Proteomics); format: cell-based; conditions: for peptides displayed on MHC-II complexes: human dendritic cells from normal donors; for immunogenicity compared with SEQ ID NO:54: in the MAPPs assay and/or the T cell proliferation assay
Experimental: MAPPS profiles the MHC-II presented peptides on human dendritic cells treated with tested molecules. CD14+ cells, isolated from the PBMCs of normal human donors, were cultured and differentiated into immature DCs by incubation with IL-4 and GM-CSF. On day 4, culture media was replaced with fresh media containing tested molecules. On day 5, LPS was added to transform the cells into mature DCs. On day 6, cells were lysed in RIPA buffer with protease inhibitors. Immunoprecipitation of MHC-II complexes were performed using biotinylated anti-MHC-II antibody coupled to streptavidin beads. The bound complex was eluted and filtered. The isolated MHC-II peptides were analyzed by a mass spectrometer. Peptide identifications were generated by an internal proteomics pipeline using search algorithms with no enzyme and a bovine/human database with test sequences appended to the database. A KNIME workflow was used to process the identification files from the samples. Peptides identified from the test articles were aligned against the parent sequence of the test molecule. The output was used to determine the percentage of donors displaying MHC-II peptides from regions of the test molecule. Polypeptides comprising SEQ ID NOs:54, 49, 50, 29, 41, 45, 1, 22, 25 were tested in the MAPPs assay. […] Depending on the donors, up to three major clusters were observed, each slightly shifted from the others, altogether spanning residues 1-33.

[2] = Pharmacokinetics in Sprague Dawley rats, single subcutaneous or intravenous dose (incl. 10, 30, 100 nmol/kg dose response); format: in vivo
[3] = donors displaying MHC-II peptides / donors tested
[4] = percentage of donors displaying MHC-II peptides
[5] = male, Sprague Dawley, rat, plasma, iv, 196 nmol/kg, single intravenous dose 196 nmol/kg, individual animal
[6] = male, Sprague Dawley, rat, plasma, iv, 196 nmol/kg, single intravenous dose 196 nmol/kg, mean
[7] = single intravenous dose 196 nmol/kg, male Sprague Dawley rats, individual animal
[8] = single subcutaneous dose 196 nmol/kg, male Sprague Dawley rats, individual animal
[9] = male, Sprague Dawley, rat, plasma, iv, 201 nmol/kg, single intravenous dose 201 nmol/kg, individual animal
[10] = male, Sprague Dawley, rat, plasma, iv, 201 nmol/kg, single intravenous dose 201 nmol/kg, mean
[11] = single intravenous dose 201 nmol/kg, male Sprague Dawley rats, individual animal
[12] = single subcutaneous dose 201 nmol/kg, male Sprague Dawley rats, individual animal

CC[C@H](C)[C@H](NC)C(=O)N[C@H](C(=O)N[C@H](C(=O)N[C@@H](CO)C(=O)N[C@@H](CC(C)C)C(=O)N[C@@H](CC(=O)O)C(=O)N[C@H](C(=O)N1CCC[C@H]1C(=O)N[C@H](C(=O)NCC(=O)N[C@@](C)(CC(C)C)C(=O)N[C@@H](CC(C)C)C(=O)N[C@@H](CCC(N)=O)C(=O)N[C@@H](CCCCN)C(=O)N[C@@H](CC(C)C)C(=O)N[C@H](C(=O)N[C@@H](CCC(=O)O)C(=O)N[C@@H](CCC(N)=O)C(=O)N[C@@H](CCC(=O)O)C(=O)N[C@@H](CCCCN)C(=O)N[C@@H](CCC(N)=O)C(=O)N[C@@H](CCC(=O)O)C(=O)N[C@@H](CCCCN)C(=O)N[C@@H](CCC(=O)O)C(=O)N[C@@H](CCCCN)C(=O)N[C@@H](CCC(N)=O)C(=O)N[C@@H](CCC(N)=O)C(=O)N[C@@H](C)C(=O)N[C@@H](CCCCNC(=O)COCCOCCNC(=O)COCCOCCNC(=O)CC[C@H](NC(=O)CCCCCCCCCCCCCCCCCCC(=O)O)C(=O)O)C(=O)N[C@@H](CCC(=O)O)C(=O)N[C@@H](CC(N)=O)C(=O)N[C@H](C(=O)N[C@@H](CCC(=O)O)C(=O)N[C@H](C(=O)N[C@@H](CC(C)C)C(=O)N[C@@H](C)C(=O)N[C@@H](CCC(N)=O)C(=O)N[C@H](C(N)=O)C(C)C)[C@@H](C)CC)[C@@H](C)O)[C@@H](C)CC)[C@@H](C)CC)C(C)C)[C@@H](C)O)C(C)C [SEQ ID NO: 49, (NMeI) VTSLDVPIG αMeL LQKLIEQEKQEKEKQQAK((2-[2-(2-Amino-ethoxy)-ethoxy]-acetyl)2-γE-CO-(CH2)18-CO2H)ENTEILAQV-NH2] (H-[NMeI]VTSLDVPIG[αMeL]LQKLIEQEKQEKEKQQAK([AEEA-AEEA-γGlu-C20 diacid])ENTEILAQV-NH2)
MAPPS Assay >10 donors with diverse MHC [1, 3]: 6/26 | peptides displayed on MHC-II complexes [1]: at least one peptide cluster on MHC-II complexes in a subset of donors | immunogenicity compared with SEQ ID NO:54 [1]: substantial improvements in immunogenicity over a compound comprising SEQ ID NO:54 | MAPPS Assay >10 donors with diverse MHC [1, 4]: 23% | clearance [2, 5]: 4.72 mL/h/kg | half-life [2, 5]: 17.8 h | clearance [2, 6]: 4.15 mL/h/kg | half-life [2, 6]: 20.4 h | half-life ([2]; male, Sprague Dawley, rat, plasma, sc, 196 nmol/kg, single subcutaneous dose 196 nmol/kg, individual animal): 19.1 h | CL/F ([2]; male, Sprague Dawley, rat, plasma, sc, 196 nmol/kg, single subcutaneous dose 196 nmol/kg, individual animal, read-out: CL/F (converted)): 11.5 mL/h/kg | half-life ([2]; male, Sprague Dawley, rat, plasma, sc, 196 nmol/kg, single subcutaneous dose 196 nmol/kg, mean): 18.4 h | CL/F ([2]; male, Sprague Dawley, rat, plasma, sc, 196 nmol/kg, single subcutaneous dose 196 nmol/kg, mean, read-out: CL/F (converted)): 10.6 mL/h/kg | Tmax ([2]; male, Sprague Dawley, rat, plasma, sc, 196 nmol/kg, single subcutaneous dose 196 nmol/kg, mean, read-out: Tmax): 18 h | AUC0-inf ([2]; rat, plasma, sc, single subcutaneous dose 196 nmol/kg, male Sprague Dawley rats, mean, read-out: AUC0-inf): 18.9 µM·h | Cmax ([2]; rat, plasma, sc, single subcutaneous dose 196 nmol/kg, male Sprague Dawley rats, mean, read-out: Cmax): 394 nM | AUC0-inf ([2]; rat, plasma, single intravenous dose 196 nmol/kg, male Sprague Dawley rats, mean, read-out: AUC0-inf): 47.7 µM·h | C0 ([2]; rat, plasma, single intravenous dose 196 nmol/kg, male Sprague Dawley rats, mean, read-out: C0): 2840 nM | AUC0-inf [2, 7]: 41.5 µM·h and 53.1 µM·h and 48.4 µM·h | C0 [2, 7]: 2790 nM and 2610 nM and 3110 nM | CL [2, 7]: 3.69 mL/h/kg and 4.05 mL/h/kg | T1/2 [2, 7]: 21.7 h and 21.6 h | AUC0-inf [2, 8]: 17.1 µM·h and 22.4 µM·h and 17.3 µM·h | CL/F [2, 8]: 8.76 mL/h/kg and 11.4 mL/h/kg | Cmax [2, 8]: 340 nM and 474 nM and 367 nM | T1/2 [2, 8]: 16.0 h and 20.2 h | Tmax [2, 8]: 24 h and 6 h

CC[C@H](C)[C@H](NC)C(=O)N[C@H](C(=O)N[C@H](C(=O)N[C@@H](CO)C(=O)N[C@@H](CC(C)C)C(=O)N[C@@H](CC(=O)O)C(=O)N[C@H](C(=O)N1CCC[C@H]1C(=O)N[C@H](C(=O)NCC(=O)N[C@@](C)(CC(C)C)C(=O)N[C@@H](CC(C)C)C(=O)N[C@@H](CCC(N)=O)C(=O)N[C@@H](CCCCN)C(=O)N[C@@H](CC(C)C)C(=O)N[C@@H](CC(C)C)C(=O)N[C@@H](CCC(=O)O)C(=O)N[C@@H](CCC(N)=O)C(=O)N[C@@H](CCC(=O)O)C(=O)N[C@@H](CCCNC(=N)N)C(=O)N[C@@H](C)C(=O)N[C@@H](CCC(=O)O)C(=O)N[C@@H](CCCCN)C(=O)N[C@@H](C)C(=O)N[C@@H](CCCNC(=N)N)C(=O)N[C@@H](CCC(N)=O)C(=O)N[C@@H](CCC(N)=O)C(=O)N[C@@H](C)C(=O)N[C@@H](CCCCNC(=O)COCCOCCNC(=O)COCCOCCNC(=O)CC[C@H](NC(=O)CCCCCCCCCCCCCCCCCCC(=O)O)C(=O)O)C(=O)N[C@@H](CCC(=O)O)C(=O)N[C@@H](C)C(=O)N[C@@H](C)C(=O)N[C@@H](CCC(=O)O)C(=O)N[C@H](C(=O)N[C@@H](CC(C)C)C(=O)N[C@@H](C)C(=O)N[C@@H](CCC(N)=O)C(=O)N[C@H](C(N)=O)C(C)C)[C@@H](C)CC)[C@@H](C)CC)C(C)C)[C@@H](C)O)C(C)C [SEQ ID NO: 50, (NMeI) VTSLDVPIG αMeL LQKLLEQERAEKARQQAK((2-[2-(2-Amino-ethoxy)-ethoxy]-acetyl)2-γE-CO-(CH2)18-CO2H)EAAEILAQV-NH2] (H-[NMeI]VTSLDVPIG[αMeL]LQKLLEQERAEKARQQAK([AEEA-AEEA-γGlu-C20 diacid])EAAEILAQV-NH2)
MAPPS Assay >10 donors with diverse MHC [1, 3]: 3/10 | peptides displayed on MHC-II complexes [1]: at least one peptide cluster on MHC-II complexes in a subset of donors | immunogenicity compared with SEQ ID NO:54 [1]: substantial improvements in immunogenicity over a compound comprising SEQ ID NO:54 | MAPPS Assay >10 donors with diverse MHC [1, 4]: 30% | clearance [2, 9]: 3.37 mL/h/kg | half-life [2, 9]: 20.3 h | clearance [2, 10]: 2.93 mL/h/kg | half-life [2, 10]: 19.2 h | half-life ([2]; male, Sprague Dawley, rat, plasma, sc, 201 nmol/kg, single subcutaneous dose 201 nmol/kg, individual animal): 19.7 h | CL/F ([2]; male, Sprague Dawley, rat, plasma, sc, 201 nmol/kg, single subcutaneous dose 201 nmol/kg, individual animal, read-out: CL/F (converted)): 7.55 mL/h/kg | Tmax ([2]; male, Sprague Dawley, rat, plasma, sc, 201 nmol/kg, single subcutaneous dose 201 nmol/kg, individual animal, read-out: Tmax): 24 h | half-life ([2]; male, Sprague Dawley, rat, plasma, sc, 201 nmol/kg, single subcutaneous dose 201 nmol/kg, mean): 17.1 h | CL/F ([2]; male, Sprague Dawley, rat, plasma, sc, 201 nmol/kg, single subcutaneous dose 201 nmol/kg, mean, read-out: CL/F (converted)): 7.53 mL/h/kg | Tmax ([2]; male, Sprague Dawley, rat, plasma, sc, 201 nmol/kg, single subcutaneous dose 201 nmol/kg, mean, read-out: Tmax): 24 h | AUC0-inf ([2]; rat, plasma, sc, single subcutaneous dose 201 nmol/kg, male Sprague Dawley rats, mean, read-out: AUC0-inf): 26.8 µM·h | Cmax ([2]; rat, plasma, sc, single subcutaneous dose 201 nmol/kg, male Sprague Dawley rats, mean, read-out: Cmax): 552 nM | AUC0-inf ([2]; rat, plasma, single intravenous dose 201 nmol/kg, male Sprague Dawley rats, mean, read-out: AUC0-inf): 69.2 µM·h | C0 ([2]; rat, plasma, single intravenous dose 201 nmol/kg, male Sprague Dawley rats, mean, read-out: C0): 5290 nM | AUC0-inf [2, 11]: 59.6 µM·h and 74.2 µM·h and 73.9 µM·h | C0 [2, 11]: 5560 nM and 4360 nM and 5960 nM | CL [2, 11]: 2.71 mL/h/kg and 2.72 mL/h/kg | T1/2 [2, 11]: 18.3 h and 19.0 h | AUC0-inf [2, 12]: 26.7 µM·h and 25.1 µM·h and 28.7 µM·h | CL/F [2, 12]: 8.03 mL/h/kg and 7.01 mL/h/kg | Cmax [2, 12]: 577 nM and 460 nM and 618 nM | T1/2 [2, 12]: 14.9 h and 16.7 h
